Measured values as given in patent US20230085307A1, “PYRIDAZINONE COMPOUND AND HERBICIDE” (NISSAN CHEMICAL CORPORATION, priority 2019, published 2023).

Columns and labels:
southern crabgrass [1] = assay: Test Example 5: herbicidal effect by foliage application, plastic box (Table 20, symbol F); assay type: in vivo, southern crabgrass (Digitaria ciliaris); details: foliage application
Summary of the method: (§1)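 Plants sown in sterilized diluvial soil and grown 14 days in a greenhouse at 25° C to 30° C, then sprayed on the foliage with the compound's emulsion diluted in water to a predetermined herbicide amount. Injury to weeds and crops scored three weeks after application on a visual rating scale.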

blackgrass = assay: Test Example 4: herbicidal effect by soil treatment (Table 19, symbol J); assay type: in vivo, blackgrass (Alopecurus myosuroides)
Summary of the method: (§2)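 Three weeks of greenhouse growth at 25° C. to 30° C. followed a uniform surface spray of water-diluted emulsion at a predetermined herbicide amount. Seeds had been sown beforehand under about 1.5 cm of sterilized diluvial soil. Grading followed criteria set out in an earlier test.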

Italian ryegrass = assay: Test Example 4: herbicidal effect by soil treatment (Table 19, symbol K); assay type: in vivo, Italian ryegrass (Lolium multiflorum)
Summary of the method: as §2

rice flat sedge = assay: Test Example 3: herbicidal effect by foliage application, Wagner pot (Table 18, symbol E); assay type: in vivo, rice flat sedge (Cyperus iria); details: for herbicidal effect on E: rice flat sedge: amount of applied herbicide 320 g/ha; for herbicidal effect on E (rice flat sedge), rating 0-5: 320 g/ha
Summary of the method: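 Plants were sown in alluvial soil held under 0.1–0.5 cm standing water and grown 14 days in a greenhouse at 25–30 °C. An emulsifiable formulation, water-diluted to the set dose, was then sprayed onto the foliage, and effects were scored three weeks later using previously defined criteria.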

wild oat = assay: Test Example 5: herbicidal effect by foliage application, plastic box (Table 20, symbol I); assay type: in vivo, wild oat (Avena fatua); details: foliage application
Summary of the method: as §1

Japanese bulrush = assay: Test Example 2: herbicidal activity, application during weed generation under submerged conditions (Table 17, symbol B); assay type: in vivo, Japanese bulrush (Schoenoplectus juncoides); details: AAH 320 g/ha; application during weed generation, submerged conditions
Summary of the method: (§3)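 Steps: fill Wagner pots with alluvial soil; add water to give 4 cm depth; sow the species mixed; grow under glass at 25–30° C.; at 1–2 leaves apply water-diluted emulsion formulation to the water surface at a fixed herbicide amount; score after 3 weeks.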

chickweed [2] = assay: Test Example 4: herbicidal effect by soil treatment (Table 19, symbol P); assay type: in vivo, common chickweed (Stellaria media)
Summary of the method: as §2

redroot pigweed = assay: Test Example 4: herbicidal effect by soil treatment (Table 19, symbol N); assay type: in vivo, redroot pigweed (Amaranthus retroflexus)
Summary of the method: as §2

chickweed [3] = assay: Test Example 5: herbicidal effect by foliage application, plastic box (Table 20, symbol P); assay type: in vivo, common chickweed (Stellaria media); details: foliage application
Summary of the method: as §1

late watergrass = assay: Test Example 1: herbicidal activity, application before weed generation under submerged conditions (Table 16, symbol A); assay type: in vivo, late watergrass (Echinochloa oryzicola); details: 320 g/ha applied herbicide
Summary of the method: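 Emulsion formulation, water-diluted to set dose, was put onto the flooded surface (4 cm depth, alluvial soil) the same day weeds were sown and 2.5-leaf rice transplanted. After 3 weeks at 25-30 °C under glass, each species was rated 0 (≤5% kill) to 5 (≥90% kill).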

persian speedwell = assay: Test Example 5: herbicidal effect by foliage application, plastic box (Table 20, symbol R); assay type: in vivo, Persian speedwell (Veronica persica); details: foliage application
Summary of the method: as §1

windgrass = assay: Test Example 5: herbicidal effect by foliage application, plastic box (Table 20, symbol L); assay type: in vivo, windgrass (Apera spica-venti); details: foliage application
Summary of the method: as §1

oval-leafed pondweed = assay: Test Example 2: herbicidal activity, application during weed generation under submerged conditions (Table 17, symbol C); assay type: in vivo, oval-leafed pondweed (Monochoria vaginalis); details: AAH 320 g/ha; application during weed generation, submerged conditions
Summary of the method: as §3

green foxtail [4] = assay: Test Example 5: herbicidal effect by foliage application, plastic box (Table 20, symbol G); assay type: in vivo, green foxtail (Setaria viridis); details: foliage application
Summary of the method: as §1

green foxtail [5] = assay: Test Example 4: herbicidal effect by soil treatment (Table 19, symbol G); assay type: in vivo, green foxtail (Setaria viridis)
Summary of the method: as §2

southern crabgrass [6] = assay: Test Example 4: herbicidal effect by soil treatment (Table 19, symbol F); assay type: in vivo, southern crabgrass (Digitaria ciliaris)
Summary of the method: as §2

[7] = 320 g/ha, evaluated three weeks after application
[8] = amount of applied herbicide 320 g/ha
[9] = AAH 320 g/ha, evaluated three weeks after application
[10] = 320 g/ha, three weeks after application
[11] = AAH 320 g/ha, three weeks after application

SMILES	herbicidal effect on J: blackgrass (blackgrass; [8])	herbicidal effect on K: Italian ryegrass (Italian ryegrass; [8])	herbicidal effect on E: rice flat sedge (rice flat sedge)	herbicidal effect rating, B: Japanese bulrush (Japanese bulrush)	herbicidal effect on P: chickweed (chickweed [2]; [8])	herbicidal effect on N: redroot pigweed (redroot pigweed; [8])	Herbicidal effect on A: late watergrass (grade 0-5) (late watergrass)	herbicidal effect rating, C: oval-leafed pondweed (oval-leafed pondweed)	herbicidal effect on G: green foxtail (green foxtail [5]; [8])	herbicidal effect on F: southern crabgrass (southern crabgrass [6]; [8])	F: southern crabgrass, herbicidal effect (criteria 0-5) (southern crabgrass [1]; [9])	I: wild oat, herbicidal effect (criteria 0-5) (wild oat; [9])	P: chickweed, herbicidal effect (criteria 0-5) (chickweed [3]; [9])	R: persian speedwell, herbicidal effect (criteria 0-5) (persian speedwell; [9])	L: windgrass, herbicidal effect (criteria 0-5) (windgrass; [9])	G: green foxtail, herbicidal effect (criteria 0-5) (green foxtail [4]; [9])	herbicidal effect on E (rice flat sedge), rating 0-5 (rice flat sedge)	other results
Cc1nn(C)c(=O)c(-c2c(-c3ccc(C(F)F)cc3)sc3ccc(F)cc23)c1O [2-227]	1 (Herbicidal rate of 5% or more and less than 20%)	4 (Herbicidal rate of 70% or more and less than 90%)	5 (Herbicidal rate of 90% or more (almost completely withered))	2 (Herbicidal rate of 20% or more and less than 40%)	5 (Herbicidal rate of 90% or more (almost completely withered))	5 (Herbicidal rate of 90% or more (almost completely withered))	3 (Herbicidal rate of 40% or more and less than 70%)	0 (Herbicidal rate of 5% or less (almost no effect))	4 (Herbicidal rate of 70% or more and less than 90%)	5 (Herbicidal rate of 90% or more (almost completely withered))	–	–	–	–	–	–	–	herbicidal effect on F: southern crabgrass (criteria 0-5) (southern crabgrass [1]; [7]): 5 (Herbicidal rate of 90% or more (almost completely withered)); herbicidal effect on I: wild oat (criteria 0-5) (wild oat; [7]): 0 (Herbicidal rate of 5% or less (almost no effect)); herbicidal effect on P: chickweed (criteria 0-5) (chickweed [3]; [7]): 5 (Herbicidal rate of 90% or more (almost completely withered)); herbicidal effect on R: persian speedwell (criteria 0-5) (persian speedwell; [7]): 5 (Herbicidal rate of 90% or more (almost completely withered)); herbicidal effect on L: windgrass (criteria 0-5) (windgrass; [7]): 0 (Herbicidal rate of 5% or less (almost no effect)); herbicidal effect on G: green foxtail (criteria 0-5) (green foxtail [4]; [7]): 4 (Herbicidal rate of 70% or more and less than 90%)
COc1cccc(S(=O)(=O)Oc2c(C)nn(C)c(=O)c2-c2c(-c3ccc(OC(F)F)cc3)sc3ccc(F)cc23)c1 [2-313]	0 (Herbicidal rate of 5% or less (almost no effect))	5 (Herbicidal rate of 90% or more (almost completely withered))	5 (Herbicidal rate of 90% or more (almost completely withered))	3 (Herbicidal rate of 40% or more and less than 70%)	5 (Herbicidal rate of 90% or more (almost completely withered))	5 (Herbicidal rate of 90% or more (almost completely withered))	2 (Herbicidal rate of 20% or more and less than 40%)	3 (Herbicidal rate of 40% or more and less than 70%)	2 (Herbicidal rate of 20% or more and less than 40%)	0 (Herbicidal rate of 5% or less (almost no effect))	4 (Herbicidal rate of 70% or more and less than 90%)	2 (Herbicidal rate of 20% or more and less than 40%)	5 (Herbicidal rate of 90% or more (almost completely withered))	5 (Herbicidal rate of 90% or more (almost completely withered))	2 (Herbicidal rate of 20% or more and less than 40%)	5 (Herbicidal rate of 90% or more (almost completely withered))	–	–
Cc1nn(C)c(=O)c(-c2c(-c3ccc(OC(C)C)cc3)sc3ccccc23)c1O [1-020]	–	–	–	3 (Herbicidal rate of 40% or more and less than 70%)	–	–	4 (Herbicidal rate of 70% or more and less than 90%)	3 (Herbicidal rate of 40% or more and less than 70%)	–	–	–	–	–	–	–	–	5 (Herbicidal rate of 90% or more (almost completely withered))	herbicidal effect grade, F: southern crabgrass (southern crabgrass [1]; [10]): 3 (Herbicidal rate of 40% or more and less than 70%); herbicidal effect rating, J: blackgrass (blackgrass; [8]): 1 (Herbicidal rate of 5% or more and less than 20%); herbicidal effect rating, K: Italian ryegrass (Italian ryegrass; [8]): 3 (Herbicidal rate of 40% or more and less than 70%); herbicidal effect grade, I: wild oat (wild oat; [10]): 0 (Herbicidal rate of 5% or less (almost no effect)); herbicidal effect rating, P: chickweed (chickweed [2]; [8]): 3 (Herbicidal rate of 40% or more and less than 70%); herbicidal effect rating, N: redroot pigweed (redroot pigweed; [8]): 0 (Herbicidal rate of 5% or less (almost no effect)); herbicidal effect grade, P: chickweed (chickweed [3]; [10]): 5 (Herbicidal rate of 90% or more (almost completely withered)); herbicidal effect grade, R: persian speedwell (persian speedwell; [10]): 5 (Herbicidal rate of 90% or more (almost completely withered)); herbicidal effect grade, L: windgrass (windgrass; [10]): 5 (Herbicidal rate of 90% or more (almost completely withered)); herbicidal effect grade, G: green foxtail (green foxtail [4]; [10]): 3 (Herbicidal rate of 40% or more and less than 70%); herbicidal effect rating, G: green foxtail (green foxtail [5]; [8]): 5 (Herbicidal rate of 90% or more (almost completely withered)); herbicidal effect rating, F: southern crabgrass (southern crabgrass [6]; [8]): 0 (Herbicidal rate of 5% or less (almost no effect))
CCCC(=O)Oc1c(C)nn(C)c(=O)c1-c1c(-c2ccc(C(F)(F)F)cc2)sc2ccccc12 [1-130]	–	–	–	2 (Herbicidal rate of 20% or more and less than 40%)	–	–	3 (Herbicidal rate of 40% or more and less than 70%)	0 (Herbicidal rate of 5% or less (almost no effect))	–	–	–	–	–	–	–	–	5 (Herbicidal rate of 90% or more (almost completely withered))	F: southern crabgrass, herbicidal effect (southern crabgrass [1]; [11]): 0 (Herbicidal rate of 5% or less (almost no effect)); J: blackgrass, herbicidal effect rating (blackgrass; AAH 320 g/ha): 0 (Herbicidal rate of 5% or less (almost no effect)); K: Italian ryegrass, herbicidal effect rating (Italian ryegrass; AAH 320 g/ha): 4 (Herbicidal rate of 70% or more and less than 90%); I: wild oat, herbicidal effect (wild oat; [11]): 0 (Herbicidal rate of 5% or less (almost no effect)); P: chickweed, herbicidal effect rating (chickweed [2]; AAH 320 g/ha): 3 (Herbicidal rate of 40% or more and less than 70%); N: redroot pigweed, herbicidal effect rating (redroot pigweed; AAH 320 g/ha): 3 (Herbicidal rate of 40% or more and less than 70%); P: chickweed, herbicidal effect (chickweed [3]; [11]): 5 (Herbicidal rate of 90% or more (almost completely withered)); R: persian speedwell, herbicidal effect (persian speedwell; [11]): 5 (Herbicidal rate of 90% or more (almost completely withered)); L: windgrass, herbicidal effect (windgrass; [11]): 3 (Herbicidal rate of 40% or more and less than 70%); G: green foxtail, herbicidal effect (green foxtail [4]; [11]): 0 (Herbicidal rate of 5% or less (almost no effect)); G: green foxtail, herbicidal effect rating (green foxtail [5]; AAH 320 g/ha): 3 (Herbicidal rate of 40% or more and less than 70%); F: southern crabgrass, herbicidal effect rating (southern crabgrass [6]; AAH 320 g/ha): 1 (Herbicidal rate of 5% or more and less than 20%)
Cc1nn(C)c(=O)c(-c2c(-c3ccc(C#N)cc3)sc3ccc(F)cc23)c1O [2-340]	3 (Herbicidal rate of 40% or more and less than 70%)	5 (Herbicidal rate of 90% or more (almost completely withered))	5 (Herbicidal rate of 90% or more (almost completely withered))	4 (Herbicidal rate of 70% or more and less than 90%)	5 (Herbicidal rate of 90% or more (almost completely withered))	5 (Herbicidal rate of 90% or more (almost completely withered))	5 (Herbicidal rate of 90% or more (almost completely withered))	3 (Herbicidal rate of 40% or more and less than 70%)	5 (Herbicidal rate of 90% or more (almost completely withered))	5 (Herbicidal rate of 90% or more (almost completely withered))	5 (Herbicidal rate of 90% or more (almost completely withered))	5 (Herbicidal rate of 90% or more (almost completely withered))	5 (Herbicidal rate of 90% or more (almost completely withered))	5 (Herbicidal rate of 90% or more (almost completely withered))	4 (Herbicidal rate of 70% or more and less than 90%)	5 (Herbicidal rate of 90% or more (almost completely withered))	–	–
